Measured values as given in US20250339567A1, “COMPOUNDS WITH IMPROVED PHARMACOKINETICS FOR IMAGING AND THERAPY OF CANCER” (priority 2019, published 2025).
Where two headings read alike, the source gives them in different places. Starred links: 1 amine or outer side, 2 acyl side, 3 side chain; linkers in the order of their positions; H or OH if unused. Non-standard residues stand in square brackets, D forms with d. Residues, ends and D or L forms follow the SMILES beside them. *: point of attachment. X4 = O=C(O)CN1CCN(CC(=O)O)CCN(CC(=O)NCc2ccc(NC(=O)COCC(=O)*)cc2)CCN(CC(=O)O)CC1; DOTAGA = O=C(O)CN1CCN(CC(=O)O)CCN(C(CCC(=O)*)C(=O)O)CCN(CC(=O)O)CC1; Benzoyl(4-SiFtBu2) = CC(C)(C)[Si](F)(c1ccc(C(=O)*)cc1)C(C)(C)C; d(γGlu) = O=C(O)[C@@H](CCC(=O)[*:2])N[*:1]; Sta = CC(C)C[C@H](N)[C@@H](O)CC(=O)O; Bta = N[C@@H](Cc1csc2ccccc12)C(=O)O; X1 = O=C(CN1CCC(N[*:1])CC1)[*:2]; NHCH(iBu)2 = CC(C)CC(CC(C)C)N*; dOrn = NCCC[C@@H](N)C(=O)O; hSer = N[C@@H](CCO)C(=O)O; X2 = NCCNCC(CNCCN)C(=O)*; dDap = NC[C@@H](N)C(=O)O; CO = O=C([*:1])[*:2]

How the values were obtained:
[1] = n-Octanol-PBS distribution coefficient, log D7.4; format: physicochemical; settings: for log D7.4 (n = 6), ^177Lu-labeled: Table 6, 177Lu-labeled Bombesin-SiFA compounds
Method: Approximately 1 MBq of the labeled tracer was dissolved in 1 mL of a 1:1 mixture (v/v) of phosphate buffered saline (PBS, pH=7.4) and n-octanol in an Eppendorf tube. After vigorous mixing of the suspension for 3 min at room temperature, the vial was centrifuged at 9000 rpm for 5 min (Biofuge 15, Heraus Sepatech, Osterode, Germany) and 200 μL aliquots of both layers were measured in a γ-counter. The experiment was repeated at least four times.

GRPR = target: T1, GRPR (Homo sapiens, UniProt P30550); test: Determination of GRPR affinity (IC50), competition with [D-3-[125I]I-Tyr6]MJ9 on PC-3 cells; format: binding; settings: for IC50 [nM], ^natLu-labeled (n = 3): Table 6, natLu-labeled
T1 construct: endogenous in cells; host or cells: PC-3 cells
T1 sequence (P30550 whole entry): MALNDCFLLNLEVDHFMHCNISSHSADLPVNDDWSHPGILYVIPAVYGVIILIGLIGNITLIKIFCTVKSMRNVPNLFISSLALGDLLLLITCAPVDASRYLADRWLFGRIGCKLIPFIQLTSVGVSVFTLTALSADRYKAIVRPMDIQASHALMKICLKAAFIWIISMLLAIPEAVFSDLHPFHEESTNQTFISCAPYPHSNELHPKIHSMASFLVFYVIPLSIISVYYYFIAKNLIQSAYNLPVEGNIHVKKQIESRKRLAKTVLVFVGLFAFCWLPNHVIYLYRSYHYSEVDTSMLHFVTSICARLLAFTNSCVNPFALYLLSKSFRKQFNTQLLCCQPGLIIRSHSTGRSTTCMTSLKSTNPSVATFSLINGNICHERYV
Method: The reference ligand for IC50 studies ([D-3-[^125I]I-Tyr^6]MJ9) is prepared according to a previously published procedure. Briefly, 0.2 mg of [D-Tyr^6]MJ9 are dissolved in 20 μL Tracepur water and 280 μL TRIS buffer (25 mm TRIS HCl, 0.4 M NaCl, pH=7.9). After addition of the solution to a vial containing 150 μg Iodo-Gen® (1,3,4,6-Tetrachloro-3α,6α-diphenylglycouril, surface-bound), 5.0 μL (16 MBq) [^125I]Nal(74 TBq/mmol, 3.1 GBq/mL, 40 mM NaOH, Hartmann Analytic, Braunschweig, Germany) are added.
The GRPR-positive PC-3 cells are cultured in Dublecco modified Eagle medium/Nutrition Mixture F-12 with Glutamax-I (1:1) (Invitrigon), supplemented with 10% fetal calf serum and maintained at 37° C. in a humidified 5% CO2 atmosphere.
After removal of the culture medium, the cells are washed once with 500 μL of HBSS (Hank's balanced salt solution, Biochrom, Berlin, Germany, with addition of 1% bovine serum albumin (BSA)) and left in 200 μL HBSS (1% BSA) for 9 min at room temperature for equilibration. Next, 25 μL per well of solutions, containing either HBSS (1% BSA) as control or the respective ligand in increasing concentration (10^−10 M-10^−4 M in HBSS), are added with subsequent addition of 25 μL of [D-3-[^125I]I-Tyr^6]MJ9 (2.0 nM) in HBSS (1% BSA).
All experiments are performed in triplicate for each concentration. After 2 h incubation at room temperature, the experiment is terminated by removal of the medium and consecutive rinsing with 300 μL of HBSS. The media of both steps are combined in one fraction and represent the amount of free radiolabeled reference. Afterwards, the cells are lysed with 300 μL of 1 M NaOH for at least 15 min and united with the 300 μL NaOH of the following washing step. Quantification of bound and free radiolabeled reference is accomplished in a γ-counter.
IC50 determination for each ligand was repeated twice.

[2] = Plasma studies: metabolic stability in vitro in human plasma (radio RP-HPLC); format: in vitro ADME; settings: Table 1C; 177Lu-labeled, 37° C., 72 ± 2 h; in % (unit assumed)
Method: Metabolic stability in vitro was determined applying a procedure published by Linder et al. that was slightly modified. Immediately after labeling, human (200 μL) or murine (100 μL) plasma was added and the mixture was incubated at 37° C. for 72±2 h (or 6±0.5 h). Proteins were precipitated by treatment with ice-cold EtOH (150 μL [human], 100 μL [murine]) and ice-cold MeCN (450 μL [human], 300 μL [murine]), followed by centrifugation for 20 min at 13000 rpm. The supernatants were decanted and further analyzed using radio RP-HPLC. […]

[3] = [D-3-[125I]I-Tyr6]MJ9 (c = 0.2 nM), 2 h, r.t.
[4] = IC50 [nM] ± SD (n = 3), Table 5, non-labeled N4 ligands, [D-3-[125I]I-Tyr6]MJ9 (c = 0.2 nM), 2 h, r.t.
[5] = read-out: IC50 [nM] ± SD (n = 3), ^177Lu-labeled, Table 1C, GRPR affinity

| Compound | IC50 [nM], ^natLu-labeled (n = 3) (GRPR; [3]) | log D7.4 (n = 6), ^177Lu-labeled [1] | IC50 (GRPR; [5]) [nM] | Amount of intact tracer after incubation in human plasma for 72 ± 2 h (n = 2) [2] | other results |
| --- | --- | --- | --- | --- | --- |
| CC(C)C[C@H](NC(=O)C[C@H](O)[C@H](CC(C)C)NC(=O)[C@H](Cc1c[nH]cn1)NC(=O)CNC(=O)[C@@H](NC(=O)[C@H](C)NC(=O)[C@](C)(Cc1c[nH]c2ccccc12)NC(=O)[C@H](CCC(N)=O)NC(=O)[C@@H](Cc1ccccc1)NC(=O)CN1CCC(NC(=O)CCC(C(=O)O)N2CCN(CC(=O)O)CCN(CC(=O)O)CCN(CC(=O)O)CC2)CC1)C(C)C)C(N)=O (single isomer, unassigned) [AMTG2] |  |  |  |  | log D7.4 ± SD (n = 8) ([1]; 177Lu-labeled ligand, n-octanol/PBS pH 7.4): −2.51 ± 0.11 |
| CC(C)C[C@H](NC(=O)C[C@H](O)[C@H](CC(C)C)NC(=O)[C@H](Cc1c[nH]cn1)NC(=O)CNC(=O)[C@@H](NC(=O)[C@H](C)NC(=O)[C@H](Cc1c[nH]c2ccccc12)NC(=O)[C@H](CCC(N)=O)NC(=O)[C@@H](Cc1ccccc1)NC(=O)CN1CCC(NC(=O)[C@@H](CN)NC(=O)[C@@H](CCCN)NC(=O)[C@@H](CC(=O)O)NC(=O)[C@@H](CC(=O)O)NC(=O)[C@@H](CNC(=O)CCC(C(=O)O)N2CCN(CC(=O)O)CCN(CC(=O)O)CCN(CC(=O)O)CC2)NC(=O)[C@@H](CNC(=O)c2ccc([Si](F)(C(C)(C)C)C(C)(C)C)cc2)NC(=O)CC[C@@H](NC(=O)N[C@H](CCC(=O)O)C(=O)O)C(=O)O)CC1)C(C)C)C(N)=O (stereo partly drawn) [GT50] ({dE-CO-d(γGlu)}-[dDap](Benzoyl(4-SiFtBu2))[dDap](DOTAGA)[dD][dD][dOrn][dDap][X1][dF]QWAVGH[Sta]L-NH2) | comparable range | −1.96 ± 0.15 |  |  |  |
| CC(C)C[C@H](NC(=O)C[C@H](O)[C@H](CC(C)C)NC(=O)[C@H](Cc1c[nH]cn1)NC(=O)CNC(=O)[C@@H](NC(=O)[C@H](C)NC(=O)[C@H](Cc1c[nH]c2ccccc12)NC(=O)[C@H](CCC(N)=O)NC(=O)[C@@H](Cc1ccccc1)NC(=O)CN1CCC(NC(=O)[C@@H](CN)NC(=O)[C@@H](CC(=O)O)NC(=O)[C@@H](CCCN)NC(=O)[C@@H](CNC(=O)CCC(C(=O)O)N2CCN(CC(=O)O)CCN(CC(=O)O)CCN(CC(=O)O)CC2)NC(=O)[C@@H](CNC(=O)c2ccc([Si](F)(C(C)(C)C)C(C)(C)C)cc2)NC(=O)CC[C@@H](NC(=O)N[C@H](CCC(=O)O)C(=O)O)C(=O)O)CC1)C(C)C)C(N)=O (stereo partly drawn) [GT51] ({dE-CO-d(γGlu)}-[dDap](Benzoyl(4-SiFtBu2))[dDap](DOTAGA)[dOrn][dD][dDap][X1][dF]QWAVGH[Sta]L-NH2) | slightly increased | −1.96 ± 0.15 |  |  |  |
| CC(C)C[C@H](NC(=O)C[C@H](O)[C@H](CC(C)C)NC(=O)[C@H](Cc1c[nH]cn1)NC(=O)CNC(=O)[C@@H](NC(=O)[C@H](C)NC(=O)[C@H](Cc1c[nH]c2ccccc12)NC(=O)[C@H](CCC(N)=O)NC(=O)[C@@H](Cc1ccccc1)NC(=O)CN1CCC(NC(=O)CN2CCC(NC(=O)CN3CCC(NC(=O)[C@@H](CC(=O)O)NC(=O)[C@@H](CNC(=O)CCC(C(=O)O)N4CCN(CC(=O)O)CCN(CC(=O)O)CCN(CC(=O)O)CC4)NC(=O)[C@@H](CNC(=O)c4ccc([Si](F)(C(C)(C)C)C(C)(C)C)cc4)NC(=O)CC[C@@H](NC(=O)N[C@H](CCC(=O)O)C(=O)O)C(=O)O)CC3)CC2)CC1)C(C)C)C(N)=O (stereo partly drawn) [GT52] ({dE-CO-d(γGlu)}-[dDap](Benzoyl(4-SiFtBu2))[dDap](DOTAGA)[dD][X1][X1][X1][dF]QWAVGH[Sta]L-NH2) | comparable range | −2.05 ± 0.08 |  |  |  |
| CC(C)C[C@H](NC(=O)C[C@H](O)[C@H](CC(C)C)NC(=O)[C@H](Cc1c[nH]cn1)NC(=O)CNC(=O)[C@@H](NC(=O)[C@H](C)NC(=O)[C@H](Cc1c[nH]c2ccccc12)NC(=O)[C@H](CCC(N)=O)NC(=O)[C@@H](Cc1ccccc1)NC(=O)CN1CCC(NC(=O)CN2CCC(NC(=O)[C@@H](CC(=O)O)NC(=O)[C@@H](CNC(=O)CCC(C(=O)O)N3CCN(CC(=O)O)CCN(CC(=O)O)CCN(CC(=O)O)CC3)NC(=O)[C@@H](CNC(=O)c3ccc([Si](F)(C(C)(C)C)C(C)(C)C)cc3)NC(=O)CC[C@@H](NC(=O)N[C@H](CCC(=O)O)C(=O)O)C(=O)O)CC2)CC1)C(C)C)C(N)=O (stereo partly drawn) [GT53] ({dE-CO-d(γGlu)}-[dDap](Benzoyl(4-SiFtBu2))[dDap](DOTAGA)[dD][X1][X1][dF]QWAVGH[Sta]L-NH2) | slightly increased | −1.81 ± 0.15 |  |  |  |
| CC(C)C[C@H](NC(=O)C[C@H](O)[C@H](CC(C)C)NC(=O)[C@H](Cc1c[nH]cn1)NC(=O)CNC(=O)[C@@H](NC(=O)[C@H](C)NC(=O)[C@H](Cc1c[nH]c2ccccc12)NC(=O)[C@H](CCC(N)=O)NC(=O)[C@@H](Cc1ccccc1)NC(=O)CN1CCC(NC(=O)[C@H](CC(=O)O)NC(=O)C(CNCCN)CNCCN)CC1)C(C)C)C(N)=O [Ligand N4-asp-MJ9] |  |  |  |  | IC50 (GRPR; [4]): 3.73 ± 0.78 nM; log D7.4 (n = 6), ^99mTc-labeled ([1]; n-octanol/PBS pH 7.4): −1.86 ± 0.03 |
| CC(C)C[C@H](NC(=O)C[C@H](O)[C@H](CC(C)C)NC(=O)[C@H](Cc1c[nH]cn1)NC(=O)CNC(=O)[C@@H](NC(=O)[C@H](C)NC(=O)[C@H](Cc1csc2ccccc12)NC(=O)[C@H](CCC(N)=O)NC(=O)[C@@H](Cc1ccccc1)NC(=O)CN1CCC(NC(=O)[C@H](CC(=O)O)NC(=O)C(CNCCN)CNCCN)CC1)C(C)C)C(N)=O [N4-asp-[Bta^8]MJ9] (X2-D[X1][dF]Q[Bta]AVGH[Sta]L-NH2) |  |  |  |  | IC50 (GRPR; [4]): 3.36 ± 0.42 nM; log D7.4 (n = 6), ^99mTc-labeled ([1]; n-octanol/PBS pH 7.4): −1.33 ± 0.06 |
| CC(C)CC(CC(C)C)NC(=O)[C@H](Cc1c[nH]cn1)NC(=O)CNC(=O)[C@@H](NC(=O)[C@H](C)NC(=O)[C@H](Cc1csc2ccccc12)NC(=O)[C@H](CCC(N)=O)NC(=O)[C@@H](Cc1ccccc1)NC(=O)COCC(=O)Nc1ccc(CNC(=O)CN2CCN(CC(=O)O)CCN(CC(=O)O)CCN(CC(=O)O)CC2)cc1)C(C)C [[Bta^8]NeoBOMB1] (X4-[dF]Q[Bta]AVGH-{NHCH(iBu)2}; N-terminus and C-terminus assumed) |  |  | 13 ± 3 | 36.2 ± 3.8 |  |
| CC(C)CC(CC(C)C)NC(=O)[C@H](Cc1c[nH]cn1)NC(=O)CNC(=O)[C@@H](NC(=O)[C@H](C)NC(=O)[C@H](Cc1c[nH]c2ccccc12)NC(=O)[C@H](CCO)NC(=O)[C@@H](Cc1ccccc1)NC(=O)COCC(=O)Nc1ccc(CNC(=O)CN2CCN(CC(=O)O)CCN(CC(=O)O)CCN(CC(=O)O)CC2)cc1)C(C)C [[Hse^7]NeoBOMB1] (X4-[dF][hSer]WAVGH-{NHCH(iBu)2}; N-terminus and C-terminus assumed) |  |  | 8.3 ± 0.7 | 57.4 ± 2.1 |  |
| CC(C)CC(CC(C)C)NC(=O)[C@H](Cc1c[nH]cn1)NC(=O)CNC(=O)[C@@H](NC(=O)[C@H](C)NC(=O)[C@](C)(Cc1c[nH]c2ccccc12)NC(=O)[C@H](CCC(N)=O)NC(=O)[C@@H](Cc1ccccc1)NC(=O)COCC(=O)Nc1ccc(CNC(=O)CN2CCN(CC(=O)O)CCN(CC(=O)O)CCN(CC(=O)O)CC2)cc1)C(C)C [[α-Me-Trp^8]NeoBOMB1] |  |  | 6.8 ± 1.2 | 70.7 ± 2.8 |  |
